Measurements from patent publication US6372297B1, “Wood preservative oxathiazines” (Uniroyal Chemical Company, Inc., priority 1993, dated 2002).
Values after ≈ are worked out from the molar mass of the structure shown. Read-outs that look alike come from different tables or passages of the source.

Columns and labels:
[1] = system: mixed spore suspension: Aureobasidium pullulans, Aspergillus amstelodami, Ceratocystis pilifera, Cladosporium sp., Penicillium sp., Sclerophomas entoxylina …; assay: Control of molds and sapstain fungi in mini-board test; design: key to Surface score of treated mini-boards, 3 week incubation, 1500 ppm / Surface score of treated mini-boards, 3 week incubation, 2500 ppm: 0: Free of fungal growth; 1: Traces of fungal growth; 2: Little fungal growth; 3: Moderate fungal growth; 4: Vigorous to maximum growth (all surfaces covered with fungal growth)
Text: Representative compounds of this invention to be tested, were suspended in an aqueous solution containing 7.5% GENAPOL X 080™ (Hoechst-Celanese Corporation), and 20% propylene glycol monomethyl ether, to prepare the test solutions. […]
Deep frozen boards (300×50×10 mm) of freshly felled sapwood of Pinus sylvestrus (mini-boards) were thawed at room temperature. One half of each mini-board was immersed in a test solution for 20 seconds. The mini-boards were then sprayed with mixed spore suspension containing the following fungi:
Sclerophomas entoxylina, and
and stored in incubation boxes at 25° C. and at 100% relative humidity, for three weeks. For each compound tested, each concentration of test solution was applied to five different mini-boards.
The efficacy of the test compounds was determined by comparing the fungal growth on both the treated and untreated parts of the mini-boards.
The degree of infection was scored according to the following scale:
1=Traces of fungal growth
4=Vigorous to maximum growth (all surfaces covered with fungal growth)

[2] = system: molds and blue-stain fungi; assay: In vitro activity against molds and blue-stain fungi, poison plate assay (MIC); assay type: cell-based; details: malt extract agar, complete inhibition
Method: The effect of the representative compounds on the growth of certain molds and blue-strain fungi were determined using a poison plate assay according to the following procedure: The solutions of the representative compounds prepared above were further diluted with sterile water to desired concentrations and poured into Petri dishes. Malt extract agar medium was then added aseptically to the Petri dishes and to Petri dishes containing no compound (controls). The Petri dishes were then shaken to provide a uniform distribution of the agar medium. Each Petri dish containing compound and each control Petri dish, was then inoculated with a fungus and incubated for a period of time sufficient to permit complete growth of the fungus in the respective control Petri dish. The Petri dishes containing compound were then examined to determine the amount of inhibition of fungi for each concentration of compound tested.

[3] = system: blue-stain fungi and molds; assay: Activity against blue-stain fungi and molds in a stick test (threshold concentrations); details: beech sticks, 22° C., 90% relative humidity; for Threshold concentration (ppm), A. niger, score 0 / Threshold concentration (ppm), Aureobasidium, score 0 / Threshold concentration (ppm), Sclerophoma, score 0 / Threshold concentration (ppm), Trichoderma, score 0: minimum concentration to obtain score 0; for Threshold concentration (ppm), A. niger, score 1-2 / Threshold concentration (ppm), Aureobasidium, score 1-2 / Threshold concentration (ppm), Sclerophoma, score 1-2 / Threshold concentration (ppm), Trichoderma, score 1-2: minimum concentration to obtain score 1-2
Method: Representative compounds of this invention were dissolved in 50% ethanol. Each compound was then diluted serially using 50% ethanol. […] After three (3) hours, the solutions containing the test compounds were poured off and the treated sticks were allowed to dry in a sterile laminar air flow. Each treated stick was then placed in a Petri dish which had been previously seeded with inoculum. Two drops of a test fungal or spore suspension were pipetted onto the upper surface of each treated stick. The Petri dishes containing the treated sticks were incubated at 22° C. and 90% relative humidity. The treated sticks were evaluated after there was sufficient growth of fungus on control sticks (i.e., untreated sticks) incubated in the same manner. The following score system was used: 0: Stick free of fungal/mold growth 1: Traces of fungal growth on the stick 2: Slight growth (5 to 25% of the surface covered with fungal growth) 3: Moderate growth (25 to 50% covered with fungal growth) 4. Vigorous to maximum fungal growth (more than 50% growth) […]

Cc1ccc(C2=NOCC[S+]2[O-])s1 (stereo not shown) [Compound 48]
Surface score of treated mini-boards, 3 week incubation, 1500 ppm [1]: 0
Surface score of treated mini-boards, 6 week incubation, 1500 ppm [1]: 1.4
Surface score of treated mini-boards, 3 week incubation, 2500 ppm [1]: 0
Surface score of treated mini-boards, 6 week incubation, 2500 ppm [1]: 0.8

Cc1ccc(C2=NOCCS2(=O)=O)s1 [Compound 49]
Surface score of treated mini-boards, 3 week incubation, 1500 ppm [1]: 0
Surface score of treated mini-boards, 6 week incubation, 1500 ppm [1]: 1.8
Surface score of treated mini-boards, 3 week incubation, 2500 ppm [1]: 0
Surface score of treated mini-boards, 6 week incubation, 2500 ppm [1]: 1.2

[O-][S+]1CCON=C1c1ccc(Cl)s1 (stereo not shown) [Compound 60, 3-(5-Chloro-2-thienyl)-5.6-dihydro-1.4.2-oxathiazine-4-oxide]
MIC (ppm) against A. amstelodami ([2]; A. amstelodami): 5 ppm
MIC (ppm) against A. niger ([2]; A. niger): 5 ppm
MIC (ppm) against A. pullulans ([2]; A. pullulans): 25 ppm
MIC (ppm) against A. versicolor ([2]; A. versicolor): 2.5 ppm
MIC (ppm) against C. cladosporioides ([2]; C. cladosporioides): 25 ppm
MIC (ppm) against C. pilifera ([2]; C. pilifera): 5 ppm
MIC (ppm) against F. solani ([2]; F. solani): 10 ppm
MIC (ppm) against G. candidum ([2]; G. candidum): 25 ppm
MIC (ppm) against P. purpurogenum ([2]; P. purpurogenum): 25 ppm
MIC (ppm) against P. variotii ([2]; P. variotii): 10 ppm
MIC (ppm) against P. violacea ([2]; P. violacea): 10 ppm
MIC (ppm) against S. atra ([2]; S. atra): 5 ppm
MIC (ppm) against S. entoxylina ([2]; S. entoxylina): 5 ppm
MIC (ppm) against T. viride ([2]; T. viride): 25 ppm
MIC (ppm) against U. atrum ([2]; U. atrum): 10 ppm
Threshold concentration (ppm), A. niger, score 0 [3]: 500 ppm
Threshold concentration (ppm), A. niger, score 1-2 [3]: <250 ppm
Threshold concentration (ppm), Aureobasidium, score 0 [3]: 1000 ppm
Threshold concentration (ppm), Aureobasidium, score 1-2 [3]: 100-250 ppm
Threshold concentration (ppm), Sclerophoma, score 0 [3]: 100 ppm
Threshold concentration (ppm), Sclerophoma, score 1-2 [3]: <50 ppm
Threshold concentration (ppm), Trichoderma, score 0 [3]: 2500 ppm
Threshold concentration (ppm), Trichoderma, score 1-2 [3]: 500-1000 ppm

O=S1(=O)CCON=C1c1ccsc1 [Compound 78]
Surface score of treated mini-boards, 3 week incubation, 1500 ppm [1]: 0.2
Surface score of treated mini-boards, 6 week incubation, 1500 ppm [1]: 1.2
Surface score of treated mini-boards, 3 week incubation, 2500 ppm [1]: 0.2
Surface score of treated mini-boards, 6 week incubation, 2500 ppm [1]: 1.8

[O-][S+]1CCON=C1c1ccsc1 (stereo not shown) [Compound 79]
Surface score of treated mini-boards, 3 week incubation, 1500 ppm [1]: 1.0
Surface score of treated mini-boards, 6 week incubation, 1500 ppm [1]: 3.0
Surface score of treated mini-boards, 3 week incubation, 2500 ppm [1]: 0
Surface score of treated mini-boards, 6 week incubation, 2500 ppm [1]: 1.8

[O-][S+]1CCON=C1c1nc2ccccc2s1 (stereo not shown) [Compound 85, 5,6-dihydro-3-(2-benzothiazolyl)-1,4,2-oxathiazine-4-oxide]
MIC ([2]; A. amstelodami, read-out: MIC (ppm) against A. amstelodami): 5 µg/mL (≈ 19.8 µM)
MIC ([2]; Aspergillus niger, A. niger, read-out: MIC (ppm) against A. niger): 5 µg/mL (≈ 19.8 µM)
MIC ([2]; Aspergillus versicolor, A. versicolor, read-out: MIC (ppm) against A. versicolor): 2.5 µg/mL (≈ 9.91 µM)
MIC ([2]; Aureobasidium pullulans, A. pullulans, read-out: MIC (ppm) against A. pullulans): 25 µg/mL (≈ 99.1 µM)
MIC ([2]; C. pilifera, read-out: MIC (ppm) against C. pilifera): 2.5 µg/mL (≈ 9.91 µM)
MIC ([2]; Cladosporium cladosporioides, C. cladosporioides, read-out: MIC (ppm) against C. cladosporioides): 25 µg/mL (≈ 99.1 µM)
MIC ([2]; Fusarium solani, F. solani, read-out: MIC (ppm) against F. solani): 25 µg/mL (≈ 99.1 µM)
MIC ([2]; Geotrichum candidum, G. candidum, read-out: MIC (ppm) against G. candidum): 10 µg/mL (≈ 39.6 µM)
MIC ([2]; P. purpurogenum, read-out: MIC (ppm) against P. purpurogenum): 10 µg/mL (≈ 39.6 µM)
MIC ([2]; P. violacea, read-out: MIC (ppm) against P. violacea): 10 µg/mL (≈ 39.6 µM)
MIC ([2]; Paecilomyces variotii, P. variotii, read-out: MIC (ppm) against P. variotii): 25 µg/mL (≈ 99.1 µM)
MIC ([2]; S. atra, read-out: MIC (ppm) against S. atra): 2.5 µg/mL (≈ 9.91 µM)
MIC ([2]; S. entoxylina, read-out: MIC (ppm) against S. entoxylina): 5 µg/mL (≈ 19.8 µM)
MIC ([2]; Trichoderma viride, T. viride, read-out: MIC (ppm) against T. viride): 25 µg/mL (≈ 99.1 µM)
MIC ([2]; U. atrum, read-out: MIC (ppm) against U. atrum): 10 µg/mL (≈ 39.6 µM)
Threshold concentration (ppm), A. niger, score 0 [3]: 1000 ppm
Threshold concentration (ppm), A. niger, score 1-2 [3]: <250 ppm
Threshold concentration (ppm), Aureobasidium, score 0 [3]: 1000 ppm
Threshold concentration (ppm), Aureobasidium, score 1-2 [3]: 250-500 ppm
Threshold concentration (ppm), Sclerophoma, score 0 [3]: 100 ppm
Threshold concentration (ppm), Sclerophoma, score 1-2 [3]: <50 ppm
Threshold concentration (ppm), Trichoderma, score 0 [3]: 2500 ppm
Threshold concentration (ppm), Trichoderma, score 1-2 [3]: 1000-2500 ppm

[O-][S+]1CCON=C1c1cc2ccccc2s1 (stereo not shown) [Compound 87]
MIC (ppm) against A. amstelodami ([2]; A. amstelodami): 5 ppm
MIC (ppm) against A. niger ([2]; A. niger): 2.5 ppm
MIC (ppm) against A. pullulans ([2]; A. pullulans): 10 ppm
MIC (ppm) against A. versicolor ([2]; A. versicolor): 2.5 ppm
MIC (ppm) against C. cladosporioides ([2]; C. cladosporioides): 25 ppm
MIC (ppm) against C. pilifera ([2]; C. pilifera): 2.5 ppm
MIC (ppm) against F. solani ([2]; F. solani): 10 ppm
MIC (ppm) against G. candidum ([2]; G. candidum): 25 ppm
MIC (ppm) against P. purpurogenum ([2]; P. purpurogenum): 2.5 ppm
MIC (ppm) against P. variotii ([2]; P. variotii): 10 ppm
MIC (ppm) against P. violacea ([2]; P. violacea): 10 ppm
MIC (ppm) against S. atra ([2]; S. atra): 2.5 ppm
MIC (ppm) against S. entoxylina ([2]; S. entoxylina): 5 ppm
MIC (ppm) against T. viride ([2]; T. viride): 10 ppm
MIC (ppm) against U. atrum ([2]; U. atrum): 10 ppm
Threshold concentration (ppm), A. niger, score 0 [3]: 1000 ppm
Threshold concentration (ppm), A. niger, score 1-2 [3]: 250-500 ppm
Threshold concentration (ppm), Aureobasidium, score 0 [3]: 1000 ppm
Threshold concentration (ppm), Aureobasidium, score 1-2 [3]: 100-250 ppm
Threshold concentration (ppm), Sclerophoma, score 0 [3]: 100 ppm
Threshold concentration (ppm), Sclerophoma, score 1-2 [3]: 50-100 ppm
Threshold concentration (ppm), Trichoderma, score 0 [3]: 5000 ppm
Threshold concentration (ppm), Trichoderma, score 1-2 [3]: 1000-2500 ppm
